Assay results reported in patent US20050209157A1, “Short bioactive peptides and methods for their use” (priority 2001, published 2005).
Like-named read-outs stand apart in the source and are kept apart here. No end group written: not given here.

Legend:
S. aureus (MRSA) = format: cell-based, Staphylococcus aureus; settings: mean of three; 16 to 20 hours at 35° C.
S. pneumoniae C719 = assay: Antimicrobial assays II, NCCLS broth microdilution MIC; format: cell-based, Streptococcus pneumoniae; settings: mean of three, in µg/mL
[1] = test system: Staphylococcus aureus ATCC 6538; assay: Antimicrobial assay I, MIC by OD measurement; format: cell-based; settings: 37° C. for 24 hours, absorbance 620 nm
[2] = test system: Pseudomonas aeruginosa ATCC 9027; assay: Antimicrobial assay I, MIC by OD measurement; format: cell-based; settings: 37° C. for 24 hours, absorbance 620 nm
MCF7 = assay: Anti-cancer assay, MTT, LD50; format: cell-based; settings: MCF7 breast adenocarcinoma line, MTT, 24 hours with peptide
Text: (§1) Numbers are LD50 values (μg/mL).

BMKC = assay: Anti-cancer assay, MTT, LD50; format: cell-based; settings: BMKC cloned melanoma line, 24 hours with peptide
Text: as §1

H1299 = assay: Anti-cancer assay, MTT, LD50; format: cell-based; settings: 24 hours with peptide, lung large cell carcinoma
Text: as §1

PC3 = assay: Anti-cancer assay, MTT, LD50; format: cell-based; settings: 24 hours with peptide, prostate adenocarcinoma
Text: as §1

SW480 = assay: Anti-cancer assay, MTT, LD50; format: cell-based; settings: SW480 colon adenocarcinoma line, 24 hours with peptide
Text: as §1

WI38 = settings: MTT, 24 hours with peptide; normal fibroblast line
S. epidermidis C621 = format: cell-based, Staphylococcus epidermidis; settings: mean of three; 16 to 20 hours at 35° C.
P. aeruginosa H774 = format: cell-based, Pseudomonas aeruginosa; settings: P. aeruginosa H744; nalidixic acid + peptide at ¼ MIC; 0.5 or less = synergy
Summary of the method: (§2)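 FIC index, computed as 0.25 plus the ratio of combination to single-agent antibiotic MIC, defines synergy when 0.5 or below. Peptide fixed at one quarter MIC while chloramphenicol or nalidixic acid was serially diluted two-fold; antibiotic-alone MICs served as baselines.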

P. aeruginosa H374 = format: cell-based, Pseudomonas aeruginosa; settings: for MIC Cm-comb.: MIC of chloramphenicol with peptide at ¼ MIC; for MIC Nal-comb.: MIC of nalidixic acid with peptide at ¼ MIC; for FIC Index: 0.5 or less = synergy
Summary of the method: as §2

P. aeruginosa = format: cell-based, Pseudomonas aeruginosa; settings: P. aeruginosa H744; MIC of nalidixic acid with peptide at ¼ MIC
Summary of the method: as §2

S. pneumoniae C718 = assay: Antimicrobial assays II, NCCLS broth microdilution MIC; format: cell-based, Streptococcus pneumoniae; settings: mean of three
in vitro [3] = format: cell-based, human; settings: human, human red blood cells, pH 7, hemolytic assay, concentration at 50% hemolysis, 1 hour at 37° C.; read-out: LD50
S. pyogenes ATCC19615 = assay: Antimicrobial assays II, NCCLS broth microdilution MIC; format: cell-based, Streptococcus pyogenes; settings: mean of three, in µg/mL
in vitro [4] = settings: human, WI38 normal lung fibroblast cells, LD50 WI38, WI38 normal lung fibroblast line, MTT, 24 hours with peptide
S. pyogenes M76 = assay: Antimicrobial assays II, NCCLS broth microdilution MIC; format: cell-based, Streptococcus pyogenes; settings: mean of three; 16 to 20 hours at 35° C.
[5] = test system: yeast (Saccharomyces cerevisiae); assay: Antimicrobial assay I, yeast assay in RPMI 1640; format: cell-based; settings: RPMI 1640 media
HeLaS3 = assay: Anti-cancer assay, MTT, LD50; format: cell-based; settings: 24 hours with peptide, cervical carcinoma
Text: as §1

[6] = chloramphenicol + peptide at ¼ MIC
[7] = nalidixic acid + peptide at ¼ MIC, FIC=0.25+MIC comb/MIC alone

Molecule: FAKLLAKLAKKL-NH2 [P49]
- S. aureus (MRSA) MIC (S. aureus (MRSA)): 64 µg/mL
- S. pneumoniae MIC (S. pneumoniae C719): 32
- staph6538 (MIC) [1]: 10 µg/mL
- paerug9027 (MIC) [2]: 200 µg/mL
- LD50 MCF7 (MCF7): 40 µg/mL
- LD50 BMKC (BMKC): 115 µg/mL
- H1299 LD50 (H1299): 140 µg/mL
- PC3 LD50 (PC3): 77 µg/mL
- LD50 SW480 (SW480): 100 µg/mL
- WI38 LD50 (WI38): 135 µg/mL
- S. epidermidis C621 MIC (S. epidermidis C621): 8 µg/mL
- FIC Index (P. aeruginosa H774): 1.25
- MIC Cm-comb. (P. aeruginosa H374): 8 µg/mL
- MIC Nal-comb. (P. aeruginosa H374): 2500 µg/mL
- FIC Index (P. aeruginosa H374; [6]): 0.75
- FIC Index (P. aeruginosa H374; [7]): 0.75
- MIC Nal-comb. (P. aeruginosa): 624 µg/mL
- S. pneumoniae MIC (S. pneumoniae C718): 64 µg/mL
- HC50 at 1 h (in vitro [3]): 225 µg/mL
- S. pyogenes MIC (S. pyogenes ATCC19615): 8
- CC50 at 24 h (in vitro [4]): 135 µg/mL
- S. pyogenes M76 MIC (S. pyogenes M76): 8 µg/mL
- yeast (MIC or MFC) [5]: 50 µg/mL

Molecule: FAKLLAKLAKKAL-NH2 [P54, FAKLLAKLAKKAL-NH2]
- S. aureus (MRSA) MIC (S. aureus (MRSA)): 16 µg/mL
- S. pneumoniae MIC (S. pneumoniae C719): 64
- staph6538 (MIC) [1]: 5 µg/mL
- paerug9027 (MIC) [2]: 50 µg/mL
- HeLaS3 LD50 (HeLaS3): 190 µg/mL
- LD50 MCF7 (MCF7): 60 µg/mL
- LD50 BMKC (BMKC): 90 µg/mL
- H1299 LD50 (H1299): 80 µg/mL
- PC3 LD50 (PC3): 90 µg/mL
- WI38 LD50 (WI38): 97 µg/mL
- S. epidermidis C621 MIC (S. epidermidis C621): 8 µg/mL
- FIC Index (P. aeruginosa H774): 1.25
- MIC Cm-comb. (P. aeruginosa H374): 16 µg/mL
- MIC Nal-comb. (P. aeruginosa H374): 5000 µg/mL
- FIC Index (P. aeruginosa H374; [6]): 1.25
- FIC Index (P. aeruginosa H374; [7]): 1.25
- MIC Nal-comb. (P. aeruginosa): 624 µg/mL
- S. pneumoniae MIC (S. pneumoniae C718): 64 µg/mL
- HC50 at 1 h (in vitro [3]): 250 µg/mL
- S. pyogenes MIC (S. pyogenes ATCC19615): 8
- CC50 at 24 h (in vitro [4]): 97 µg/mL
- S. pyogenes M76 MIC (S. pyogenes M76): 8 µg/mL
- yeast (MIC or MFC) [5]: 50 µg/mL

Molecule: CC[C@H](C)[C@H](N)C(=O)N[C@@H](CC(C)C)C(=O)N1CCC[C@H]1C(=O)N[C@@H](Cc1c[nH]c2ccccc12)C(=O)N[C@@H](CCCCN)C(=O)N[C@@H](Cc1c[nH]c2ccccc12)C(=O)N1CCC[C@H]1C(=O)N[C@@H](Cc1c[nH]c2ccccc12)C(=O)N[C@@H](Cc1c[nH]c2ccccc12)C(=O)N1CCC[C@H]1C(=O)N[C@@H](Cc1c[nH]c2ccccc12)C(=O)N[C@@H](CCCNC(=N)N)C(=O)N[C@@H](CCCNC(=N)N)C(N)=O [P63, reference compound]
- S. aureus (MRSA) MIC (S. aureus (MRSA)): 32 µg/mL
- S. pneumoniae MIC (S. pneumoniae C719): 16
- HeLaS3 LD50 (HeLaS3): 345 µg/mL
- LD50 MCF7 (MCF7): 64 µg/mL
- LD50 BMKC (BMKC): 200 µg/mL
- H1299 LD50 (H1299): 270 µg/mL
- PC3 LD50 (PC3): 290 µg/mL
- LD50 SW480 (SW480): 345 µg/mL
- S. epidermidis C621 MIC (S. epidermidis C621): 16 µg/mL
- S. pneumoniae MIC (S. pneumoniae C718): 128 µg/mL
- HC50 at 1 h (in vitro [3]): 375 µg/mL
- S. pyogenes MIC (S. pyogenes ATCC19615): 8
- S. pyogenes M76 MIC (S. pyogenes M76): 8 µg/mL

Molecule: FALALKALKKALKKLKKALKKAL-NH2 [P2, reference compound]
- S. aureus (MRSA) MIC (S. aureus (MRSA)): 32 µg/mL
- S. pneumoniae MIC (S. pneumoniae C719): 32
- staph6538 (MIC) [1]: 25 µg/mL
- paerug9027 (MIC) [2]: 100 µg/mL
- HeLaS3 LD50 (HeLaS3): 50 µg/mL
- LD50 MCF7 (MCF7): 23 µg/mL
- LD50 BMKC (BMKC): 128 µg/mL
- H1299 LD50 (H1299): 140 µg/mL
- PC3 LD50 (PC3): 44 µg/mL
- LD50 SW480 (SW480): 46 µg/mL
- WI38 LD50 (WI38): 66 µg/mL
- S. epidermidis C621 MIC (S. epidermidis C621): 8 µg/mL
- S. pneumoniae MIC (S. pneumoniae C718): 128 µg/mL
- HC50 at 1 h (in vitro [3]): 10 µg/mL
- S. pyogenes MIC (S. pyogenes ATCC19615): 8
- CC50 at 24 h (in vitro [4]): 66 µg/mL
- S. pyogenes M76 MIC (S. pyogenes M76): 4 µg/mL
- yeast (MIC or MFC) [5]: 25 µg/mL
